Measurements as given in article PMC8440871, “LC-Q-Orbitrap-MS/MS Characterization, Antioxidant Activity, and α-Glucosidase-Inhibiting Activity With In Silico Analysis of Extract From Clausena Indica (Datz.) Oliv Fruit Pericarps” (Frontiers in Nutrition, 2021).
Values after ≈ are worked out from the molar mass of the structure shown.

Molecular target: α-Glucosidase from Saccharomyces cerevisiae (Saccharomyces cerevisiae, UniProt P53341)
Test: α-Glucosidase inhibiting activity (α-GIA), p-NPG substrate
Assay type: biochemical
Details: 0.5 U/ml enzyme, pH 6.8, 37°C, 5 mM p-NPG

α-Glucosidase from Saccharomyces cerevisiae, sequence (P53341 whole entry): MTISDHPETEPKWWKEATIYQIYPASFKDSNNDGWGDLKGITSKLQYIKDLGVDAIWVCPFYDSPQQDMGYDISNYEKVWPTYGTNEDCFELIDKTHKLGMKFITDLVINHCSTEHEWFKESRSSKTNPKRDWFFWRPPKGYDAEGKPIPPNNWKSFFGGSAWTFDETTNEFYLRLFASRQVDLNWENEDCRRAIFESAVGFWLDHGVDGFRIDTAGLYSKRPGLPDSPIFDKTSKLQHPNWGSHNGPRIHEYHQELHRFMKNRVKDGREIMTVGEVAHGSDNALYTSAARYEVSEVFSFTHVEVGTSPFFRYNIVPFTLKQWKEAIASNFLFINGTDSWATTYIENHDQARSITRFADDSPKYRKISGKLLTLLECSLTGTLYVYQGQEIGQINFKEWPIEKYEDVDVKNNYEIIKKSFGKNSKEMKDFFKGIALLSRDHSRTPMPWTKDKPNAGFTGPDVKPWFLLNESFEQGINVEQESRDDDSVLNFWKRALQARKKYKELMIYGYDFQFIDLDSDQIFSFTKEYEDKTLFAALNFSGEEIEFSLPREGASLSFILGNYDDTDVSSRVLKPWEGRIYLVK

IC50 α-GIA: 374.23 µg/mL (≈ 1290 µM)
Compound: Oc1cc(O)c2c(c1)O[C@H](c1ccc(O)c(O)c1)[C@@H](O)C2 [(+)-Catechin]
